Data: patent publication US20250346550A1, “METHODS OF MODULATING ENDONUCLEASE G USING RESVERATROL AND ITS DERIVATIVES” (THE REGENTS OF THE UNIVERSITY OF COLORADO A BODY CORPORATE, priority 2022, published 2025)

Tests used:
Format in all cases: in vivo, C. elegans
[1] = tested on: α-synuclein-induced dopaminergic neuronal death in baIn11 animals; assay: α-synuclein-based Parkinson's Disease model, DA neuronal death; conditions: 100 μM, adult day 2 baIn11 animals vs 0.25% ethanol
Text: FIG. 8. […] In each experiment, 300 animals were scored to determine the percentage of animals losing at least one dopaminergic neuron in the head. Data are mean±s.e.m. *P<0.05; ***P<0.001, two-sided, unpaired t-test.
FIG. 13. […] In each experiment, 300 animals were scored to determine the percentage of animals losing at least one of the six dopaminergic neurons in the head. Data are mean±s.e.m. ****P<0.001, two-sided, unpaired t-test.
In addition to PME and apoptosis, EndoG was previously shown to play an important role in mediating dopaminergic (DA) neuronal death induced by expression of human α-synuclein, which is widely considered to be a major proponent of Parkinson's disease. However, the mechanism by which EndoG mediates α-synuclein-induced neurodegeneration is unclear. In a C. elegans α-synuclein-based Parkinson's Disease model, co-expression of GFP and human α-synuclein in C. elegans dopaminergic neurons under the control of the promoter of the dat-1 gene, which encodes a dopamine transporter, from an integrated transgene baIn11 (Pdat-1::gfp/Pdat-1::α-synuclein) caused DA neuronal death in 30% of adult baIn11 animals (FIG. 8a). The cps-6(tm3222) mutation blocked DA neuronal death in adult baIn11 animals (FIG. 8a), confirming that CPS-6 is important for α-synuclein-induced DA neuronal death.

[2] = tested on: germline tumor in daf-16(mu86); cki-2(ok2105); glp-1(ar202) mutant (ET507); assay: germline tumor model (ET507); conditions: 100 μM, ET507 at 20° C., vs 0.25% ethanol (FIG. 14)
Experimental: FIG. 9. Cis-resveratrol inhibits and trans-resveratrol promotes germline tumor formation. Tumor size and tumor occurring frequency of the daf-16(mu86); cki-2(0k2105); glp-1 (ar202) mutant grown at 20° C. and treated with 1% ethanol (Mock), 200 μM cis-resveratrol (Cis), and 200 μM trans-resveratrol (Trans), respectively, are shown. Tumor assays were performed in triplicate with 100 animals per replicate. a, A five-stage classification was created to measure the tumor size in adult day 5 animals under the Normaski optic. Score 1 denotes the normal gonads seen in wild-type animals. Score 5 denotes enlarged gonads full of mitotic germ cells and without any egg or oocyte. Score 2-4 denote partially enlarged gonads. b, Tumor frequency indicates the percentage of animals with enlarged gonads (score 5). Data from three independent biological replicates are shown as mean±SEM. *P<0.05; **P<0.01; ***P<0.001, two-sided, unpaired t-test.
FIG. 14. stabilized cis-resveratrol inhibits germline tumor formation as well as cis-resveratrol. Tumor occurring frequency of the daf-16 (mu86); cki-2 (0k2105); glp-1 (ar202) mutant (ET507) grown at 20° C. and treated with 0.25% ethanol (Mock), 100 μM cis-resveratrol, and 100 μM Stabilized cis-resveratrol, respectively, are shown. Tumor assays were performed in triplicate with 100 animals per replicate. Data are mean±s.e.m. ****P<0.001, two-sided, unpaired t-test
The present inventors tested whether resveratrol isomers affect tumorigenesis in a C. elegans germline tumor model (ET507), in which three cell growth genes, daf-16, cki-2, and glp-1, are mutated, leading to uncontrolled germ cell proliferation and germline tumor.

[3] = toxicity observed in animal assays; conditions: neuronal death and tumor assays, 100 μM
Text: As described above, Applicant's successfully synthesized a new compound, stabilized cis-resveratrol.

For `O=C1CCC(c2ccc(O)cc2)=C1c1cc(O)cc(O)c1` [stabilized cis-resveratrol], the “effect on α-synuclein-induced DA neuronal death” value [1] was “comparable activity as cis-resveratrol in strongly suppressing”, the germline tumor formation [2] was “comparable activity as cis-resveratrol in strongly suppressing” and the “toxicity in animal assays” value [3] was “No obvious toxicity was observed”.
